Patent publication US20110269790A1, “NOVEL THIENOPYRIDINES AS PHARMACOLOGICALLY ACTIVE AGENTS” (priority 2009, published 2011)
“And” between values parts separate entries of the source, which are not always exact repeats. Equal values may be shown once.

Legend:
Wistar rats [1] = test: Dextran induced rat paw edema model; format: in vivo; conditions: 3 hrs after Dextran
Experimental: Anti-inflammatory activity of test compounds was evaluated in Wistar rats employing method of Winter et al (1963) and Diwan et al (1989). Over night fasted rats were grouped into different test groups and standard group consisting 6 animals in each group. Test compounds were administered orally one hour before dextran challenge as gum acacia suspension. Animals in the standard group received Indomethacin at dose of 10 mg/kg. After one hour dextran was injected into the right hind paw by sub plantar route. A zero hour paw volume was measured for the rats using digital plethysmometer (Ugo Basile, Italy) before the administration of Dextran for all groups. Paw volumes were again measured 3 hrs after the challenge of Dextran. The percent inhibition of paw volume for each rat in treated groups was calculated by comparing with mean paw volume of control group and expressed as mean (±SE) percent inhibition of paw volume for each test group.

Wistar rats [2] = test: Arachidonic acid induced paw edema; format: in vivo, rat; conditions: one hour after Arachidonic acid
Experimental: Paw edema was produced in rats by Arachidonic acid following the method of Dimartino et al. (1987) and Laura segura et al., 1998. wistar rats weighing between 130-150 g were divided in to groups of six animals (n=6).A volume of 0.1 ml of 0.5% Arachidonic acid in 0.2M Carbonate buffer was injected in to the plantar side of the right hind paw of the rat. Paw volumes were measured using plethysmometer before and after one hour Arachidonic acid injection. Results obtained were compared with those obtained from the control group, which received vehicle only.

TNF-α = TNF-α in rat paw tissue, FCA model (ELISA); format: in vivo; conditions: termination day
Experimental: Group I—Normal Control; Group II—Arthritic control; Group III—Arthritic rats administered with Synthetic compound BN-4; Group IV—arthritic rats administered with compound BN-14; Group V—arthritic rats administered with BN-16; Group VI—arthritic rats administered with standard drug indomethacin. Administration of test compounds and indomethacin started on the same day of adjuvant injection at the dose of 100 and 2.5 mg/kg respectively. The test and indomethacin doses continued up to 21 days in FCA induced model and 24 days in collagen induced model. During the study period the paw volumes were measured on 5th, 12th, 18th and 21 st days and the weight of the animals was also recorded at different time intervals. At each time point the percentage of inhibition of paw volume was calculated with reference to mean paw volume of control group In FCA model, animals were sacrificed on 21st day by cervical dislocation. Before sacrificing the animals, blood was collected and used for estimation of total leukocyte count, TNF-α and IL-1β.
In FCA induced study paw tissues were collected on termination day and estimated TNF-α and IL-1β levels for all the groups by ELISA method.

Wistar rats [3] = test: Freund's complete adjuvant (FCA) induced arthritis; format: in vivo, rat; conditions: 17th day and 21st day, 100 mg/kg, vs arthritic control
mice = test: Acute oral toxicity, sighting study in mice; format: in vivo, mouse; conditions: 2000 mg/kg in mice
Experimental: In the series of thioenopyridine derivatives compounds BN-4, BN-14 and BN-16 show good antiinflammatory potential in all models tested. […] Acute Oral Toxicity Study was conducted following OECD guidelines by fixed dose method adopted by OECD (420). The study involved preliminary sighting using small number of animals in order to derive the dose effect relation for toxicity and mortality and to provide information on dose selection for the main study.
In the preliminary sighting study, the effect of various dosed administered to single animals of each sex was investigated in a sequential manner. The sighting study generally yields information on the dose-toxicity relationship including an estimate of the minimum lethal dose. In the main study, the test article is administered to groups of 5 males and 5 female animals at one of the fixed doses (5, 50, 500 and 2000 mg/Kg). The dose is derived from the sighting study. It is immediately below that which is expected to result in mortality. If evident toxicity is not seen at the chosen dose level, the substance should be retested at the next higher dose level. If at the initial dose level, animals die, or a severe toxicity reaction requires removal of animals from the study for animal welfare reasons, the substance is retested at the next lower dose level. […]

Row | SMILES | % Inhibition (Wistar rats [1]; 50 mg/kg oral) | Percentage Swelling (50 mg/kg) (Wistar rats [1]; 50 mg/kg oral) | % Inhibition (Wistar rats [1]; 100 mg/kg oral) | Percentage Swelling (100 mg/kg) (Wistar rats [1]; 100 mg/kg oral) | % Inhibition (Wistar rats [1]; 200 mg/kg oral) | Percentage Swelling (200 mg/kg) (Wistar rats [1]; 200 mg/kg oral) | % Inhibition (Wistar rats [2]; 50 mg/kg) | Percentage Swelling (50 mg/kg) (Wistar rats [2]; 50 mg/kg) | % Inhibition (Wistar rats [2]; 100 mg/kg) | Percentage Swelling (100 mg/kg) (Wistar rats [2]; 100 mg/kg) | % Inhibition (Wistar rats [2]; 200 mg/kg) | Percentage Swelling (200 mg/kg) (Wistar rats [2]; 200 mg/kg) | % Inhibition (TNF-α) (TNF-α) | Arthritic scoring (Wistar rats [3]) | Toxicity, sighting study (mice)
1 | Nc1c2c(nc3sc4c(c13)CCC4)CCCCC2 [BN-16, 1,2,3,6,7,8,9,10-Octahydrocyclohepta[b]cyclopenta[4,5]thieno[3,2-e]pyridine-11-amine] | 18.30 ± 3.25% | 61.80 ± 1.18a % | 30.90 ± 4.32% | 40.09 ± 4.24 % | 41.00 ± 3.86% | 31.85 ± 2.09 % | 21.72 ± 2.80% | 52.32 ± 2.37 % | 34.10 ± 2.82% | 44.95 ± 2.0 % | 45.63% and 45.63 ± 2.87% | 36.30 ± 1.80 % | 37.42 ± 5.57% | significantly reduced | 
2 | COc1ccc2c(c1)c(CC(=O)O)c(C)n2C(=O)c1ccc(Cl)cc1 [Indomethacin, reference compound] |  |  |  |  |  |  |  |  |  |  |  |  | 29.06 ± 0.06% |  | 
3 | Cc1sc2nc3c(c(N)c2c1C)CCCCC3 [BN-4, 2,3-dimethyl-6,7,8,9-tetrahydro-5H-cyclohepta[b]thieno[3,2-e]pyridin-4-amine] | 12.17 ± 1.14% | 69.96 ± 4.06 % | 13.57 ± 1.71% | 50.01 ± 1.09 % | 32.71 ± 4.45% | 38.52 ± 2.60 % | 19.13 ± 2.01% | 55.32 ± 2.06 % | 29.94 ± 3.37% | 48.54 ± 2.2 % | 44.92% and 44.92 ± 3.10% | 37.50 ± 1.60 % | 42.9 ± 3.78% | significantly reduced | 
4 | Nc1c2c(nc3sc4c(c13)CCC4)CCCC2 [BN-14, 2,3,6,7,8,9-Hexahydro-1H-cyclopenta[4,5]thieno[2,3-b]quinolin-10-amine] | 21.29 ± 4.69% | 65.36 ± 2.91a % | 24.83 ± 0.47% | 41.63 ± 2.78 % | 38.54 ± 4.26% | 36.09 ± 2.79 % | 24.21 ± 3.89% | 50.56 ± 3.12 % | 33.6 ± 3.11% | 45.64 ± 2.0 % | 41.37% and 41.37 ± 2.40% | 38.70 ± 1.60 % | 38.03 ± 9.73% | significantly reduced | toxic
